The text below walks through data of ChEMBL document CHEMBL1140217, “Prolyl oligopeptidase inhibition by N-acyl-pro-pyrrolidine-type molecules” (J Med Chem, 2008).

Molecules are shown by their SMILES.

As a reminder, the IC50 is the concentration needed to halve the response being measured. Read a high IC50 as a need for much substance.

This assay addresses T1, Prolyl endopeptidase (Rattus norvegicus, UniProt O70196).
T1 sequence (O70196 whole entry): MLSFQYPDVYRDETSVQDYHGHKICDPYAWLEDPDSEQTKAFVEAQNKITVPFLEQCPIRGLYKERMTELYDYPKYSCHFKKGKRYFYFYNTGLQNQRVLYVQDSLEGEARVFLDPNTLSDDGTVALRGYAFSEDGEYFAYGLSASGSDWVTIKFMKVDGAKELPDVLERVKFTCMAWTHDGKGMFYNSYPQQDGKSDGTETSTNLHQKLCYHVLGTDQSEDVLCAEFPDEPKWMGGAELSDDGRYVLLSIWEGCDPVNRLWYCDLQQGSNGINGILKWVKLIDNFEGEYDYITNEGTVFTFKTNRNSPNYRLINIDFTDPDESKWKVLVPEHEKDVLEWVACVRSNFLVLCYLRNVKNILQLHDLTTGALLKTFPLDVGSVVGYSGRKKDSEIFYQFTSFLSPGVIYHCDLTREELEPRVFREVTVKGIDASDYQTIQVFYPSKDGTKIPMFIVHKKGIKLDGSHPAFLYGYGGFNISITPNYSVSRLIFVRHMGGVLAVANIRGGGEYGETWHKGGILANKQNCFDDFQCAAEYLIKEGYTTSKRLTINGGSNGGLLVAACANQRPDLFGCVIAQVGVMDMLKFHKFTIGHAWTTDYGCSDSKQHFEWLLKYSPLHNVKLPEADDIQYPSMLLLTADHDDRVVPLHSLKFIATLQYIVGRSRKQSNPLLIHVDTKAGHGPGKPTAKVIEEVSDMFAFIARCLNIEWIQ
The experiment in a line: Inhibition of POP in Sprague-Dawley rat brain homogenates. The format is tissue-based.

In turn, `CCCCCCCC(=O)N1CCC[C@H]1C(=O)N1CCCC1` had an IC50 of 48 nM.

Turning to `O=C([C@@H]1CCCN1C(=O)CCCn1c(=O)c(-c2ccccc2)nc2ccccc21)N1CCCC1`, the half-inhibitory concentration (IC50) stood at 59 nM.

As to `O=C([C@@H]1CCCN1C(=O)CCCN1C(=O)c2ccccc2C1=O)N1CCCC1`, the half-maximal inhibitory concentration (IC50) is 40 nM. The IC50 values of the last two molecules are within 1.5-fold of each other.

For the molecule `O=C([C@@H]1CCCN1C(=O)CCN1C(=O)c2ccccc2C1=O)N1CCCC1`, the IC50 amounted to 3 nM. Compared with the last molecule, the IC50 is about 13-fold lower.
